Patent US20060263895A1, “Method for monitoring the stereoselectivity and relative rate of organic chemical reactions” (priority 2005, published 2006)

Tests used:
[1] = HKR of (±)-propylene oxide under standard neat 'Jacobsen conditions' (NMR conversion, chiral HPLC ee); settings: for NMR conv. (time) / % ee (HPLC): loading 0.25 mol %; for % ee (HPLC) / % ee of the 1,2-propanediol product, as observed by chiral HPLC (lower number): + = (S), − = (R); for % ee of the 1,2-propanediol product, as observed by chiral HPLC (lower number): neat propylene oxide, 0.55 equiv. H2O, 0.25 mol % catalyst, 3 h reaction time
Description: Salens in the fully synthetic, 42 member focused library that led to catalysts with appreciable activity, as indicated by double cuvette-ISES, were also evaluated ‘outside of the cuvette,’ under conditions more typically employed in HKR reactions. Specifically, these Co(III)-salen catalysts were evaluated in the HKR of (±)-propylene oxide, under neat conditions, similar to those described by Jacobsen and coworkers. Reactions were arbitrarily stopped after 3 hours, to obtain the enantiopurity of the 1,2-propanediol product at relatively early reaction times, for comparison with ISES predictions.
A typical procedure follows: To the Co(III)-salen catalyst derived from 7e (5.4 mg, 5.4 μmol, 0.25 mol %) and (±)-propylene oxide (125 mg, 2.15 mmol) at 0° C., was added water (21 μL, 1.18 mmol, 0.55 equiv.). The reaction mixture was securely capped, and allowed to warm to room temperature and stirred, most commonly for a total of 3 hours. Percent conversion at 3 hours was evaluated by 1H NMR of an aliquot (cooled to 0° C. for the transfer), in CDCl3. In most of these cases, the conversion was low enough after 3 hours, that the unreacted epoxide (bp 32° C.) was of relatively low ee, and was therefore removed by evaporation under aspirator vacuum. When the conversion was less than 5% by NMR after 3 hours, reactions were continued for longer times.
Upon termination of the reaction, the diol product was isolated by Kugelrohr distillation (˜120° C.-oven temp; 0.1 torr). To determine ee, the isolated diol was derivatized using p-bromobenzoyl imidazole (2.2 equiv.) in THF in the presence of NaH (4 equiv.) at room temperature for 5 min. The bis(p-bromobenzoate) esters obtained following sequential washes with 1 N HCl and saturated sodium bicarbonate, were of sufficient purity to be used directly for chiral HPLC analysis (Chiralcel OD, 99% […]). [drawing 23] [drawing 24] [drawing 25] [drawing 26] [drawing 27]

[2] = Double cuvette-ISES (in situ enzymatic screening) of Co(III)-salen mediated HKR of (±)-propylene oxide; settings: for % ee of the 1,2-propanediol product, as predicted by double-cuvette ISES (upper number): bilayer of pH 8.6 buffer over 7.2 M epoxide in CHCl3, 0.25 mol % catalyst, 15-35 min, + = (S), − = (R)
Description: Aqueous reporting layers. containing TBADH/NADP+ (cuvette 1) and HLADH/NAD+ (cuvette 2), respectively, are then added. The increase in absorbance at 340 nm can be followed for several such sets in parallel by UV-vis spectrophotometry. The kinetic data are then used to make the double-cuvette ISES predictions.
A general procedure for double cuvette-ISES to estimate both enantioselectivities and relative rates for an array of catalysts being screened in parallel is presented below. The hydrolytic kinetic resolution (HKR) of (±) propylene oxide was chosen as model reaction.
Typically, quartz cuvettes with one cm light paths and with nominal one mL volumes were used. For each catalyst, a two cuvette screen was performed, with cuvette A containing HLADH, as (S)-propanediol-selective reporting enzyme, and cuvette B containing TBADH, as a (R)-propanediol-selective reporting enzyme. For each cuvette, the final volume was 800 μL (300 μL of organic layer; 500 μL of aqueous layer).
Both cuvettes A and B had the following composition: 150 μL (2.15 mmol) of (±)-propylene oxide (7.2 M in organic layer), 150 μL of CHCl3 and 0.25 mol % Co(III)-salen catalyst. The total organic layer volume was maintained as 300 μL in all catalyst screens.
(i) Cuvette A: 0.35 U HLADH (17.6 μL from a stock solution (0.02U/μL)), 7.2 mM β-NAD+(16.5 μL from a 220 mM stock) and 465.8 μL of 50 mM sodium pyrophosphate buffer, pH 8.8. The final pH was 8.6.
(ii) Cuvette B: 0.35 U TBADH (15.8 μL from a stock solution (0.022U/μL)) of, 2.2 mM β-NADP+ (5 μL from a 220 mM stock) and 479.5 μL of 50 mM sodium pyrophosphate buffer, pH 8.8. The final pH was 8.6. The total volume of the aqueous layer was maintained as 500 μL in both cuvettes in all ISES experiments.
C. Step by Step Protocol: A catalyst stock solution (22 μmol of catalyst in 620 μL CHCl3) was made up in a 1.5 ml microcentrifuge tube, and stored on ice, along with a stock of (±)-propylene oxide, in a separate tube. The organic layers were prepared by briefly vortexing 150 μL (5.4 μmol, 0.25 mol %) of the catalyst stock in CHCl3 with 150 μL (2.15 mmol) of (±)-propylene oxide in iced microcentrifuge tubes. These were loaded into 1 mL quartz cuvettes using precooled (refrigerator), disposable 1 mL syringes. The aqueous layers were then layered on top of the organic layers, by syringe, down the walls of the cuvette.

[3] = [total 1,2-propanediol] in aqueous ISES layer by 1H NMR; settings: for [diol] (mM) @ 15 min: aqueous ISES layer, 1H NMR, t = 15 min; for Norm.: normalized to the catalyst derived from salen 3b (rate 1.0)
Description: The concentration of 1,2-propanediol in the aqueous layer was estimated under typical ISES conditions using 1H NMR spectroscopy. The bilayer was prepared as usual for double cuvette-ISES (Section V), but for the substitution of D2O for H2O in the buffer, and the elimination of the dehydrogenase enzymes. After 15 min, the aqueous layer (300 μL of 500 μL total) was withdrawn and mixed with a fresh solution of imidazole of known concentration (also 300 μL in D2O), as an internal concentration standard. Accumulation of the 1H NMR spectrum, followed by integration and quantitation, provided an experimental measure of [total diol] in the aqueous reporting layer at t=15 minutes for the catalyst under investigation. The observed diol concentrations for ten catalysts examined in this way are collected in Table S6, below. These have been normalized to the value for the catalyst derived from salen 3b (arbitrarily assigned a rate of 1.0).

[4] = reaction stopped at the time given (mostly 3 h)

| Molecule | NMR conv. (time) ([1]; 3 h) | % ee (HPLC) [1, 4] | % ee of the 1,2-propanediol product, as observed by chiral HPLC (lower number) [1] | % ee of the 1,2-propanediol product, as predicted by double-cuvette ISES (upper number) [2] | [diol] (mM) @ 15 min [3] | Norm. [3] | also measured |
| --- | --- | --- | --- | --- | --- | --- | --- |
| CC(C)(C)c1cc(C=NC[C@@H](N=Cc2cc(C(C)(C)C)cc(C(C)(C)C)c2O)c2ccccc2)c(O)c(C(C)(C)C)c1 [Salen 2a, N,N′-Bis(3′,5′-di-tert-butylsalicylidene)-(1S)-phenyl-1,2-ethylenediamine] | 17 (3 h) % | −93 (R) % ee | −93 % ee | −97 % ee | 27.5 mM | 0.29 |  |
| CC(C)(C)c1cccc(C=NC[C@@H](N=Cc2cccc(C(C)(C)C)c2O)c2ccccc2)c1O [Salen 2b, N,N′-Bis(3′-tert-butylsalicylidene)-(1S)-phenyl-1,2-ethylenediamine] | 26 (3 h) % | −75 (R) % ee | −75 % ee | −73 % ee | 22 mM | 0.23 |  |
| CC(C)(C)c1cccc(C=NC[C@H](Cc2ccccc2)N=Cc2cccc(C(C)(C)C)c2O)c1O [Salen 3b, N,N′-Bis(3′-tert-butylsalicylidene)-(1S)-benzyl-1,2-ethylenediamine] |  | +57 (S) % ee | +57 % ee | +70 % ee | 96 mM | 1.0 |  |
| Oc1c(C=NC[C@H](Cc2ccccc2)N=Cc2ccc3ccccc3c2O)ccc2ccccc12 [Salen 3d, N,N′-Bis(1′-hydroxy-2′-naphthylidene)-(1S)-benzyl-1,2-ethylenediamine] | 10 (3 h) % | −30 (R) % ee | −30 % ee | −54 % ee |  |  |  |
| CC(C)(C)c1cccc(C=NC[C@H](Cc2cccc3ccccc23)N=Cc2cccc(C(C)(C)C)c2O)c1O [Salen 4b, N,N′-Bis(3′-tert-butylsalicylidene)-(1S)-(α-naphthylmethyl)-1,2-ethylenediamine] | 50 (3 h) % | +59 (S) % ee | +59 % ee | +91 % ee | 98 mM | 1.02 |  |
| Oc1c(I)cc(I)cc1C=NC[C@H](Cc1cccc2ccccc12)N=Cc1cc(I)cc(I)c1O [Salen 4e, N,N′-Bis(3′,5′-diiodosalicylidene)-(1S)-(α-naphthylmethyl)-1,2-ethylenediamine] |  | +14 (S) % ee | +14 % ee | +43 % ee |  |  | NMR conv. (time) ([1]; 24 h): 6 (24 h) %; ISES rate in the HLADH cuvette ([2]; over 35 min): 18.1 mAbs min−1 |
| Oc1cc(OCc2ccccc2)ccc1C=NC[C@H](Cc1cccc2ccccc12)N=Cc1ccc(OCc2ccccc2)cc1O [Salen 4f, N,N′-Bis(4′-benzyloxysalicylidene)-(1S)-(α-naphthylmethyl)-1,2-ethylenediamine] |  | +51 (S) % ee | +51 % ee | +57 % ee |  |  | NMR conv. (time) ([1]; 21 h): 24 (21 h) % |
| Oc1c(I)cc(I)cc1C=NC[C@H](Cc1ccc2ccccc2c1)N=Cc1cc(I)cc(I)c1O [Salen 5e, N,N′-Bis(3′,5′-diiodosalicylidene)-(1S)-(β-naphthylmethyl)-1,2-ethylenediamine] | 3 (3 h) % | −5 (R) % ee | −5 % ee | +35 % ee |  |  |  |
| CO[C@H]1[C@@H]2OC(C)(C)O[C@@H]2COC1(CN=Cc1cc(C(C)(C)C)cc(C(C)(C)C)c1O)N=Cc1cc(C(C)(C)C)cc(C(C)(C)C)c1O (some centres unmarked) [Salen 6a, N,N′-Bis(3′,5′-di-tert-butylsalicylidene)-3-O-methyl-4,5-O-isopropylidene-1,2-dideoxy-Dfructopyranosyl-1,2-diamine] |  |  |  |  |  |  | NMR conv. (time) ([1]; 3 h, listed as 6a*): 12 (3 h) %; % ee (HPLC) ([1]; reaction stopped at the time printed in the row (mostly 3 h), listed as 6a*): +69 (S) % ee; % ee of the 1,2-propanediol product, as observed by chiral HPLC (lower number) ([1]; listed as 6a*): +69 % ee; % ee of the 1,2-propanediol product, as predicted by double-cuvette ISES (upper number) ([2]; listed as 6a*): +77 % ee |
| CO[C@H]1[C@@H]2OC(C)(C)O[C@@H]2COC1(CN=Cc1cccc(C(C)(C)C)c1O)N=Cc1cccc(C(C)(C)C)c1O (some centres unmarked) [Salen 7b, N,N′-Bis(3′-tert-butylsalicylidene)-3-O-methyl-4,5-O-isopropylidene-1,2-dideoxy-Dfructopyranosyl-1,2-diamine] | 9 (3 h) % | −40 (R) % ee | −40 % ee | −28 % ee |  |  |  |
| CO[C@H]1[C@@H]2OC(C)(C)O[C@@H]2COC1(CN=Cc1c(O)ccc2ccccc12)N=Cc1c(O)ccc2ccccc12 (some centres unmarked) [Salen 7c, N,N′-Bis(2′-hydroxy-1′-naphthylidene)-3-O-methyl-4,5-O-isopropylidene-1,2-dideoxy-Dfructopyranosyl-1,2-diamine] |  |  |  |  |  |  | NMR conv. (time) ([1]; time not given): none obs; ISES signal ([2]; over 35 min): § (These catalysts gave ISES signals <20 mAbs min−1 over 35 min.) |
| N,N′-Bis(3′-tert-butylsalicylidene)-[1R-(1α,2α,5α)]-2-amino-7,7-dimethyl-2-bicyclo[3.3.1]heptaneethanamine [Salen 1b] |  | +75 (S) % ee | +75 % ee | +68 % ee |  |  |  |
